For series [1], the system named is HepG2 cells. Kind of series: Apoptosis induction, Annexin V and PI double-staining, flow cytometry. The class given is cell-based, human. The following applies: HepG2, 24 h; sorafenib 4 μg/mL; combination 4 μg/mL sorafenib+5 μg/mL FICD. How it is done: Different concentrations of FICD were added on the second day, culture was continued for 24 h, cells were collected and washed 3 times with precooled PBS, and adherent cells were digested with trypsin free of EDTA. The solutions were combined, centrifuged, and washed 3 times again with precooled PBS. 400 μL of solution containing 5 μL of V-FITC and 10 μL of PI was added, incubation was performed at room temperature under protection from light, and detection was performed by flowcytometry after 30 min.

The subject of series [2] is HepG2 cells. Kind of series: Cell cycle distribution by flow cytometry. The class given is cell-based, human. As to conditions: sorafenib 5 μg/mL, FICD 10 μg/mL, combination 5 μg/mL FICD+10 μg/mL sorafenib. How it is done:
1 mL of 70% precooled (−20° C.) ethanol was added to the cell precipitate, homogenized by pipetting, and fixed at 4° C. overnight. On the second day, HepG2 cells was collected by centrifugation, 2 mL of precooled PBS was added for washing 3 times, 500 μL of PBS containing 50 μg/mL […] (PI) and 100 μg/mL RNaseA was added, and incubation was performed at 4° C. under protection from light for 30 min. Detection was performed on a flow cytometer, and results can be seen in FIG. 9 and FIG. 10.

Series [3] concerns human liver cancer cell strain SMMC-7721. Description: MTT growth inhibition on SMMC-7721. The class given is cell-based. The following applies: concentration range of 10-40 μg/mL, one of 6 types of tumor cells.
Method: (§2) By using an MTT method, a sample solution to be tested was added to a 96-well plate in which cancer cells were adherently grown. Culturing was performed for a certain period, and the growth inhibition effect of a compound on a human cancer cell strain for primary screening was measured to determine the anti-cancer activity of the compound.
(§3) Cell culture: A cell incubator was set to conditions of 37° C., 5% CO2, and a saturated humidity, cells were cultured under these conditions, and the cell medium was a DMEM complete medium, wherein 10% fetal bovine serum, 100 IU/mL penicillin, and 100 μg/mL streptomycin were comprised.
(§4) The single cell suspension was diluted to 5×10^3/100 μL after counting, inoculated on a 96-well cell culture plate (triplicate), and adherently cultured overnight; […]
(§5) The culture liquid was discarded, 100 μL of DMSO was added, low-speed oscillation was performed for 10 min by placing on a shaker, and the spectrophotometric value of each well was measured at a wavelength of 490 nm by using a microplate reader. Statistical analysis was performed and tumor cell growth inhibition rate was calculated according to the equation: Growth inhibition rate=(OD value of control group−OD value of experimental group)/OD value of control group.
Series [4] is described as follows: In vivo absorption in mice, intragastric versus intraperitoneal administration. The arrangement: species or system white Kunming mice. The following applies: inferred from no statistical difference between administration manners. The source says: The aim of this experiment was to investigate in vivo tumor growth inhibition effect of FICD on white Kunming mice bearing ascites hepatoma H22 induced solid tumor, discuss in vivo absorption of FICD in mice, and investigate the druggability and the selection of administration manners of FICD, among different administration manners (intragastric administration and intraperitoneal injection administration). The specific protocol of investigation was as follows:
(§1) Test method: For the test method, see Example 24. Results can be seen in FIG. 15, FIG. 16, and Table 5.

Series [5] has as its system HepG2 cells. Kind of series: Apoptosis induction by laser confocal scanning microscope. The format is cell-based, human. The following applies: HepG2, 48 h. Here is the method: Two solutions (a former one and a later one) were mixed, centrifugation was performed at 1000 r/min for 5 min, the supernatant was discarded, and washing was performed for 3 times with PBS. The cell precipitate was resuspended in Binding Buffer, 10 μL of a FITC-Annen V staining liquid was added, homogenized by pipetting slightly, and reaction was performed under protection from light. PI was added for staining for 15 min, centrifugation was performed, the supernatant was discarded, and washing was performed for 3 times again with PBS. A glass slide was loaded by applying the cell precipitate thereto and mounted with non-fluorescent buffering glycerol, a laser confocal scanning microscope was immediately used for observation and taking photographs at wavelengths of 488 nm and 560 nm. Meanwhile, cells without AnneixnV-FITC and PI added were used as a negative control.

The test system of series [6] is human breast cancer cell strain MAD-MB-231. Description: MTT growth inhibition on MAD-MB-231. The class given is cell-based. The following applies: MDA-MB-231, after 48 h of action.
Method: as §2, §3, §4, §5
Series [7] concerns human cervical cancer Hela cell strains. Description: MTT growth inhibition on Hela.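 Note: compound exposure of 24, 48 or 72 h in DMEM with 10% fetal bovine serum, MTT absorbance read at 490 nm, inhibition calculated relative to control group OD.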 As to conditions: Homo sapiens, HeLa.
Method: as §2, §3
The single cell suspension was diluted to 5×10^3/100 μL after counting, inoculated on a 96-well cell culture plate (triplicate), and adherently cultured overnight;
After 24 h of adhesion, the complete medium was discarded, 100 μL-sample-solutions to be tested having different concentrations were sequentially added to the 96-well plate according to a concentration gradient, and incubations were continued for 24 h, 48 h, and 72 h;
The culture liquid was discarded, a 0.5 mg/mL MTT diluted working liquid was added, and incubation was performed for 4 h by placing in an incubator;
as §5
Culturing was performed for a certain period, the growth inhibition effect of a compound on 3 human cancer cell strains for primary screening was measured to determine the anti-cancer activity of the compound, and a growth inhibition curve was plotted.
The test system of series [8] is ascites hepatoma H22 induced solid tumor. Kind of series: In vivo tumor growth inhibition in mice bearing H22. On the set-up: species or system white Kunming mice. The following applies: Table 4, intraperitoneal, 10 d.
Description: 1. Tumor strain and animal for experiments: H22 liver cancer cell strain was provided by Teaching and Research Office, School of Basic Medical Sciences, Lanzhou University/Key Lab of Preclinical Study for New Drugs of Gansu Province, and was passage and preserved by periodically intraperitoneal inoculation. White Kunming mice (18.0-22.0 g) were provided by Lanzhou Veterinary Institute, Chinese Academy of Agriculture.
2. Establishment of tumor models and method of grouping: a third passage of mice which were well grown 7 d after intraperitoneal inoculation of H22 tumor cells were sacrificed by cervical dislocation, and placed and soaked in 75% alcohol for 10 min. After 3 mL of sterile physiological saline was intraperitoneally injected, milky tumor cell ascites was withdrawn from the abdominal cavity, and formulated into a tumor cell suspension with sterile physiological saline, with a cell number of 1.5×10^7 mL^−1. 80 white Kunming mice were taken, and 0.2 mL of the tumor cell suspension was subcutaneously inoculated to the left axilla of each mouse. 24 h after the inoculation of tumor cells, the mice were divided into 8 groups according to body weights, 10 mice for each group. […] All of the administration manners were intraperitoneal administration.
3. Result of experiments: On the second day of modeling, continuous administration was performed for 10 d. Administration was stopped on the 11th d, and mice were sacrificed by cervical dislocation on the next day.
as §1
Method: Modeling was performed by using the method of establishing H22 white mice tumor-bearing model of Example 24. The in vivo tumor growth inhibition activity of COM33 on H22 model mice was measured in an intraperitoneal injection administration manner.

Values after ≈ are worked out from the molar mass of the structure shown. Like-named read-outs stand apart in the source and are kept apart here.

From patent US10519132B2, “Isocorydine derivatives, preparation method and use thereof” (Lanzhou Institute of Chemical Physics, Chinese Academy of …, priority 2017, dated 2019) come the findings set out here.

Regarding `COc1cc(NC(=O)Nc2ccc(Cl)c(C(F)(F)F)c2)c2c(c1O)-c1c(OC)c(OC)cc3c1C(C2)N(C)CC3` (stereo not drawn) [Compound 1], the apoptosis rate in series [1] was 11.93%. Moreover, the “cell cycle distribution compared to the blank control group” value in series [2] was “cells significantly increased in the G2/M phase and decreased in the G0/G1 phase”. The growth inhibition activity result in series [3] is given as “certain growth inhibition activities”. In addition, the “in vivo absorption after oral administration” value in series [4] is on record as “well absorbed”. For the same compound, in series [5], the “apoptosis and cell morphology, Anneixn V-FITC and PI double-staining” value is “apoptoses occurred during various phases”. The concentration for half-maximal inhibition (IC50) in series [6] is 14.2 ± 0.66 µg/mL (≈ 24.6 µM); in series [7] (48 h, read-out: IC50 Hela, after 48 h of action), 18.6 ± 0.29 µg/mL; in series [7] (read-out: IC50 HeLa, Table 1, MTT) it was 26.5 µM; in series [7] (read-out: IC50 Hela, Table 2, MTT), 26.5 µM. Further, the “Tumor inhibition rate (%)” value was 50.8% in series [8] (high FICD dosage 150 mg/Kg), 39.1% in series [8] (low FICD dosage 50 mg/Kg) and 45.6% in series [8] (middle FICD dosage 100 mg/Kg).
